Assay results taken from PubChem BioAssay (NCI).
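Method: 48-hour compound exposure of cells in 96-well plates, five concentrations, linear interpolation of endpoints. GI50 = concentration required for 50% inhibition of growth. TGI: total growth inhibition.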

Experiments:
Test in all cases: NCI tumour cell line growth inhibition, 48 h
RPMI-8226 leukemia = test system: RPMI-8226 leukemia
SK-MEL-28 melanoma = test system: SK-MEL-28 melanoma
CCRF-CEM leukemia = test system: CCRF-CEM leukemia
SR leukemia = test system: SR leukemia
UO-31 renal = test system: UO-31 renal
MCF7 breast = test system: MCF7 breast
HOP-62 NSCLC = test system: HOP-62 NSCLC
HT29 colon = test system: HT29 colon
786-0 renal = test system: 786-0 renal
SK-MEL-5 melanoma = test system: SK-MEL-5 melanoma

Row | SMILES | GI50 (RPMI-8226 leukemia) [µM] | TGI (RPMI-8226 leukemia) [µM] | GI50 (SK-MEL-28 melanoma) [µM] | TGI (SK-MEL-28 melanoma) [µM] | GI50 (CCRF-CEM leukemia) [µM] | TGI (CCRF-CEM leukemia) [µM] | GI50 (SR leukemia) [µM] | TGI (SR leukemia) [µM] | GI50 (UO-31 renal) [µM] | TGI (UO-31 renal) [µM] | GI50 (MCF7 breast) [µM] | TGI (MCF7 breast) [µM] | GI50 (HOP-62 NSCLC) [µM] | TGI (HOP-62 NSCLC) [µM] | GI50 (HT29 colon) [µM] | TGI (HT29 colon) [µM] | GI50 (786-0 renal) [µM] | TGI (786-0 renal) [µM] | GI50 (SK-MEL-5 melanoma) [µM] | TGI (SK-MEL-5 melanoma) [µM]
1 | CCCN1CCC(c2ccc(Nc3nc(Nc4cc(F)ccc4C(N)=O)c4cc[nH]c4n3)c(OC)c2)CC1 | 3.68 | 12.1 | 4.19 | 8.1 | 1.16 | 20.3 | 0.0131 | 4.54 | 2.14 | 6.54 | 0.0185 | 4.23 | 2.71 | 5.84 | 0.0124 | 1.06 | 3.07 | 7.52 | 3.41 | 6.63
2 | CCn1ccc(NS(=O)(=O)c2ccc(N)cc2)nc1=O | > 100 | > 100 | > 100 | > 100 | > 100 | > 100 | > 100 | > 100 | > 100 | > 100 | > 100 | > 100 | > 100 | > 100 | > 100 | > 100 | > 100 | > 100 | > 100 | > 100
3 | COc1ccc(/C=C2\c3cc(OC)c(OC)c(OC)c3CC[C@@H]2O)cc1F | 1.82 | > 100 | 7.54 | > 100 | 0.815 | > 100 | 0.0899 | > 100 | 0.534 | 89.9 | 0.088 | > 100 | 0.245 | > 100 | 1.36 | 13.4 | 0.492 | > 100 | 0.234 | 17.2
4 | Cc1cc(Cl)cc(Cc2cc(Cl)cc(C)c2O)c1O | 1.58 | 9.35 | 3.46 | 15.2 | 3.08 | 16.1 | 2.58 | 10.8 | 2.06 | 10.6 | 2.47 | 9.66 | 3.66 | 11.5 | 3.63 | 10.7 | 2.48 | 7.76 | 1.71 | 3.61
5 | COc1ccc2c(c1OC(C)=O)C1=CC(=O)CCC13CCNC3C2 (stereo not given) |  | > 100 |  | > 100 |  | > 100 |  | > 100 |  | > 100 |  | > 100 |  | > 100 |  | > 100 |  | > 100 |  | > 100
6 | CN(C)CCOC(=O)Nc1nc2ccc(Sc3ccccc3)cc2[nH]1 | 3.72 | 17.9 | 9.19 | 24.3 | 2.67 | 16.3 | 0.921 | 19.4 | 3.11 | 15.4 | 1.35 | 15.2 | 3.94 | 15.5 | 3.57 | 10.7 | 3.8 | 15 | 3.31 | 12.5
